Among the data in ChEMBL document CHEMBL1159315, “Constituents of the bark and twigs of Artocarpus dadah with cyclooxygenase inhibitory activity” (J Nat Prod, 2002) are IC50 and inhibition values, retold here.

Experiment [1] addresses Prostaglandin G/H synthase 1 (Homo sapiens, UniProt P23219).
Experiment [2] deals with T1, Prostaglandin G/H synthase 2 (Homo sapiens, UniProt P35354).
T1 sequence (P35354 whole entry): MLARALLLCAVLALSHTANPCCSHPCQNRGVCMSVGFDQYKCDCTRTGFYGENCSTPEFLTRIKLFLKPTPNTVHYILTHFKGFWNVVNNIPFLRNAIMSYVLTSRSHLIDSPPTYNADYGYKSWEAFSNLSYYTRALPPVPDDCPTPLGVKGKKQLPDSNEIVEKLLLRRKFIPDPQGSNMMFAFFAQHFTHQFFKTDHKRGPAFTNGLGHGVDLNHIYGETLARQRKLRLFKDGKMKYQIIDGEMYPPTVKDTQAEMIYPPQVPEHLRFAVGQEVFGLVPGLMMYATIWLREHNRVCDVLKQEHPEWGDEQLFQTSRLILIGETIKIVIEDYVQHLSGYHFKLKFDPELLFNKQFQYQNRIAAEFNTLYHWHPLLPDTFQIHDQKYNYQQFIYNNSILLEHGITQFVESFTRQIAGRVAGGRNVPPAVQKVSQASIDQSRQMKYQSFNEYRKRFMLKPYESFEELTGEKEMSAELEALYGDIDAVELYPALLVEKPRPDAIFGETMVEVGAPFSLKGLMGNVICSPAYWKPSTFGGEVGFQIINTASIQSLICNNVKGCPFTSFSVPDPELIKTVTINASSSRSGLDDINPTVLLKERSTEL

Experiment [3] in a line: Inhibition of DMBA-induced preneoplastic lesions in mouse mammary gland organ culture at 10 ug/mL. In kind it is functional.

pIC50: −log10 of the molar value.

Sequence of Prostaglandin G/H synthase 1 (P23219 whole entry): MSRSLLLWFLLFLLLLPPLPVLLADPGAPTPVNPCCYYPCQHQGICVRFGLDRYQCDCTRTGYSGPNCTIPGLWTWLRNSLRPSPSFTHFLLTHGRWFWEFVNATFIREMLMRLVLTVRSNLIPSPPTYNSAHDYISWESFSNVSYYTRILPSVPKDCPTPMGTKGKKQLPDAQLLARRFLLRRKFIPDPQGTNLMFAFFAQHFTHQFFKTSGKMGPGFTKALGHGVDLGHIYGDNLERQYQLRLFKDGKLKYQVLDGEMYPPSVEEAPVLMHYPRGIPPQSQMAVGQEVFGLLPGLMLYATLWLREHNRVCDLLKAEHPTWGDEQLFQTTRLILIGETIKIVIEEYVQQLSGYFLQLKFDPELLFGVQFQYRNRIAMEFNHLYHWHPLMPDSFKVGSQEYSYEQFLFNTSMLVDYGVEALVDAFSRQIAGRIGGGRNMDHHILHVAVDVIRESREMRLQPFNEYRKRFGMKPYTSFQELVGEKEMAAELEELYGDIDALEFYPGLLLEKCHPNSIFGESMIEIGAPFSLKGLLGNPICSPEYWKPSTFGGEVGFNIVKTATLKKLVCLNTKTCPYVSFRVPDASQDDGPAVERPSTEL

For the compound `CC1OC(OC2C(=O)c3c(O)cc(O)cc3OC2c2ccc(O)cc2)C(O)C(O)C1O` (configuration not stated) [ENGELETIN], the negative logarithm of the IC50 (pIC50) in experiment [1] and in experiment [2] was below 3.64 each time.

In the case of `Oc1cc(O)cc(/C=C/c2ccc(O)cc2O)c1` [OXYRESVERATROL], the inhibition – broadly, the share of the control response that was lost under treatment – at 10 µg/mL in experiment [3] amounted to 33.3%. Moreover, the values for the pIC50 in experiment [1] and in experiment [2] were 5.85 and 3.96, respectively.

In turn, `O=C1c2c(O)cc(O)cc2O[C@H](c2ccc(O)cc2O)[C@H]1O` [DIHYDROMORIN] showed an inhibition at 10 µg/mL in experiment [3] of 81.5%. For the same compound, the pIC50 – broadly, −log10 of the IC50, conventionally taken in molar units – in experiment [1] was 4.17; in experiment [2] it was below 4.00.

As to `Oc1ccc(/C=C/c2cc(O)cc(O)c2)cc1` [RESVERATROL], in experiment [3], the inhibition at 10 µg/mL turned out to be 87.5%.

`O=c1cc(-c2ccc(O)cc2O)oc2cc(O)cc(O)c12` [NORARTOCARPETIN]: the inhibition at 10 µg/mL in experiment [3] was found to be 85.2%. The pIC50 in experiment [1] was 4.85; in experiment [2], below 4.00.

The compound `C/C(=C/Cc1c(O)ccc(C(=O)/C=C/c2ccc(O)cc2)c1O)COC(=O)/C=C/c1ccc(O)cc1` [GEMICHALCONE B] returned an inhibition at 10 µg/mL in experiment [3] of 33.3%. In addition, the pIC50 in experiment [1] is 4.85; in experiment [2], 4.42.

`Oc1cc(O)cc(-c2cc3ccc(O)cc3o2)c1` [MORACIN M] registered an inhibition at 10 µg/mL in experiment [3] of 33.3%. Besides, the pIC50 is 6.30 in experiment [1] and 4.65 in experiment [2].

For `Oc1cc(O)c2c(c1)O[C@H](c1ccc(O)c(O)c1)[C@@H](O)C2` [CIANIDANOL], the inhibition at 10 µg/mL in experiment [3] came to 50%. This compound also gave a pIC50 in experiment [1] of 4.44.

On to `CC(C)=CCc1cc(/C=C/c2cc(O)cc(O)c2)ccc1O`, for which the inhibition at 10 µg/mL in experiment [3] was determined as 7.3%. Besides, the negative logarithm of the IC50 (pIC50) in experiment [1] is 6.21; in experiment [2], 5.02.

On to `CC(C)=CCc1cc(/C=C/c2cc(O)cc(O)c2)c(O)cc1O`, for which the inhibition at 10 µg/mL in experiment [3] stood at 0%. The pIC50 in experiment [1] was 5.39; in experiment [2] it was 4.44.

For the compound `COc1cc(C(O)C(COC(=O)/C=C/c2ccc(O)cc2)Oc2ccc(/C=C/COC(=O)/C=C/c3ccc(O)cc3)cc2OC)ccc1O` (configuration not stated) [DADAHOL B], the pIC50 in experiment [1] and in experiment [2] was below 3.83 in each case.

In the case of `C/C(=C\Cc1c(O)ccc(C(=O)/C=C/c2ccc(O)cc2)c1O)COC(=O)/C=C/c1ccc(O)cc1` [ISOGEMICHALCONE B], the pIC50 in experiment [1] is 4.93; in experiment [2] it was 4.82.

Compound `C[C@@H]1O[C@@H](O[C@H]2Cc3c(O)cc(O)cc3O[C@@H]2c2ccc(O)cc2)[C@H](O)[C@H](O)[C@H]1O` returned an inhibition at 10 µg/mL in experiment [3] of 0%. Moreover, the pIC50 in experiment [1] was 5.08; in experiment [2], 4.71.

Consider `Oc1ccc([C@H]2Oc3cc(O)cc(O)c3C[C@H]2O)cc1` [EPIAFZELECHIN (2R,3R)(-)], for which the inhibition at 10 µg/mL in experiment [3] amounted to 81.5%. Moreover, the pIC50 in experiment [2] is 4.16.

Take `CC(C)(O)[C@H](O)Cc1cc(/C=C/c2cc(O)cc(O)c2)ccc1O`: the figures for the pIC50 in experiment [1] and in experiment [2] were 6.32 and 4.86, respectively.

As to `COc1cc(C(O)C(COC(=O)/C=C/c2ccc(O)cc2)Oc2c(OC)cc(/C=C/COC(=O)/C=C/c3ccc(O)cc3)cc2OC)ccc1O` (configuration not stated) [DADAHOL A], the pIC50 in experiment [1] and in experiment [2] was below 3.84 in each case.

On to `O=C1CC(c2ccc(O)cc2O)Oc2cc(O)cc(O)c21` (configuration not stated) [STEPPOGENIN], for which 10 µg/mL produced 66.7% inhibition in experiment [3]. The values for the pIC50 in experiment [1] and in experiment [2] were 5.23 and 4.33, respectively.
